Test results published in ChEMBL document CHEMBL1201861, “Genomics of Drug Sensitity in Cancer screening data, Wellcome Trust Sanger Institute”.

Legend:
[1] = test system: SK-HEP1; test: cells; type: functional, cell-based, SK-HEP-1; details: Homo sapiens;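 further: cell viability readout used to quantify reduction in proliferation of human SK-HEP-1 cells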
Description: SANGER: Inhibition of human SK-HEP-1 cell growth in a cell viability assay.

[2] = test system: ARH-77; test: cells; type: functional, cell-based; details: Homo sapiens;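 further: growth inhibition of ARH-77 cells, read out by a cell viability assay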
Description: SANGER: Inhibition of human ARH-77 cell growth in a cell viability assay.

[3] = test system: ME-180; test: cells; type: functional, cell-based; details: Homo sapiens;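 further: cell viability assay measuring growth inhibition of ME-180 cells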
Description: SANGER: Inhibition of human ME-180 cell growth in a cell viability assay.

[4] = test system: MRK-nu-1; test: cells; type: functional, cell-based; details: Homo sapiens;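 further: cell viability assay measuring growth suppression of human MRK-nu-1 cells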
Description: SANGER: Inhibition of human MRK-nu-1 cell growth in a cell viability assay.

[5] = test system: MDA-MB-415; test: cells; type: functional, cell-based; details: Homo sapiens
[6] = test system: CAL-33; test: cells; type: functional, cell-based; details: Homo sapiens;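 further: growth inhibition of CAL-33 cells, read out with a cell viability assay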
Description: SANGER: Inhibition of human CAL-33 cell growth in a cell viability assay.

[7] = test system: NCI-H1792; test: cells; type: functional, cell-based; details: Homo sapiens;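 further: growth inhibition of human NCI-H1792 cells, read out as cell viability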
Description: SANGER: Inhibition of human NCI-H1792 cell growth in a cell viability assay.

[8] = test system: TCC-SUP; test: cells; type: functional, cell-based; details: Homo sapiens;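 further: growth inhibition of TCC-SUP cells, read out with a cell viability assay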
Description: SANGER: Inhibition of human TCCSUP cell growth in a cell viability assay.

[9] = test system: HuCCT-1; test: cells; type: functional, cell-based, HuCCT1; details: Homo sapiens;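 further: growth inhibition of HuCCT-1 cells, read out by a cell viability assay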
Description: SANGER: Inhibition of human HuCCT1 cell growth in a cell viability assay.

[10] = test system: CPC-N; test: cells; type: functional, cell-based; details: Homo sapiens;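 further: growth inhibition of CPC-N cells, with a cell viability assay as the readout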
Description: SANGER: Inhibition of human CPC-N cell growth in a cell viability assay.

[11] = test system: NCI-H2405; test: cells; type: functional, cell-based; details: Homo sapiens;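 further: growth inhibition of the human cell line, read out with a cell viability assay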
Description: SANGER: Inhibition of human NCI-H2405 cell growth in a cell viability assay.

[12] = test system: SW1573; test: cells; type: functional, cell-based; details: Homo sapiens;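 further: growth inhibition of SW1573 cells, read out with a cell viability assay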
Description: SANGER: Inhibition of human SW1573 cell growth in a cell viability assay.

[13] = test system: NCI-H1618; test: cells; type: functional, cell-based; details: Homo sapiens;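 further: growth inhibition of human NCI-H1618 cells, measured by a cell viability assay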
Description: SANGER: Inhibition of human NCI-H1618 cell growth in a cell viability assay.

[14] = test system: BL-41; test: cells; type: functional, cell-based; details: Homo sapiens;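 further: growth inhibition of human BL-41 cells, read out with a cell viability assay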
Description: SANGER: Inhibition of human BL-41 cell growth in a cell viability assay.

[15] = test system: HTC-C3; test: cells; type: functional, cell-based; details: Homo sapiens;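 further: inhibition of cell growth, read out with a cell viability assay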
Description: SANGER: Inhibition of human HTC-C3 cell growth in a cell viability assay.

[16] = test system: RD; test: cells; type: functional, cell-based; details: Homo sapiens
Description: SANGER: Inhibition of human RD cell growth in a cell viability assay.

[17] = test system: EVSA-T; test: cells; type: functional, cell-based; details: Homo sapiens;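 further: growth inhibition of EVSA-T cells, read out with a cell viability assay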
Description: SANGER: Inhibition of human EVSA-T cell growth in a cell viability assay.

[18] = test system: P31-FUJ; test: cells; type: functional, cell-based; details: Homo sapiens;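 further: growth inhibition of P31-FUJ cells, read out with a viability assay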
Description: SANGER: Inhibition of human P31-FUJ cell growth in a cell viability assay.

[19] = test system: HOP-92; test: cells; type: functional, cell-based; details: Homo sapiens;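 further: cell viability readout, with IC50 reflecting inhibition of HOP-92 cell growth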
Description: SANGER: Inhibition of human HOP-92 cell growth in a cell viability assay.

[20] = test system: NCI-H650; test: cells; type: functional, cell-based; details: Homo sapiens;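 further: growth inhibition of NCI-H650 cells, read out by a viability assay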
Description: SANGER: Inhibition of human NCI-H650 cell growth in a cell viability assay.

[21] = test system: KOSC-2; test: cells; type: functional, cell-based; details: Homo sapiens;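 further: growth inhibition of KOSC-2 cells, read out by a cell viability assay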
Description: SANGER: Inhibition of human KOSC-2 cell growth in a cell viability assay.

[22] = test system: SIG-M5; test: cells; type: functional, cell-based; details: Homo sapiens;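 further: cell viability assay read-out, measuring how strongly growth of cultured human SIG-M5 cells is inhibited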
Description: SANGER: Inhibition of human SIG-M5 cell growth in a cell viability assay.

[23] = test system: SW-620; test: cells; type: functional, cell-based; details: Homo sapiens;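 further: growth inhibition of human SW-620 cells, measured by a cell viability assay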
Description: SANGER: Inhibition of human SW620 cell growth in a cell viability assay.

[24] = test system: SK-MEL-30; test: cells; type: functional, cell-based; details: Homo sapiens;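 further: growth inhibition of SK-MEL-30 cells, determined with a cell viability assay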
Description: SANGER: Inhibition of human SK-MEL-30 cell growth in a cell viability assay.

[25] = test system: HT-29; test: cells; type: functional, cell-based; details: Homo sapiens;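 further: growth inhibition of human HT-29 cells, read out by a cell viability assay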
Description: SANGER: Inhibition of human HT-29 cell growth in a cell viability assay.

[26] = test system: MDA-MB-134-VI; test: cells; type: functional, cell-based; details: Homo sapiens
Description: SANGER: Inhibition of human MDA-MB-134-VI cell growth in a cell viability assay.

[27] = test system: TALL-1; test: cells; type: functional, cell-based; details: Homo sapiens;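 further: growth inhibition of cultured human TALL-1 cells, read out by a cell viability assay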
Description: SANGER: Inhibition of human TALL-1 cell growth in a cell viability assay.

[28] = test system: NCI-H187; test: cells; type: functional, cell-based; details: Homo sapiens;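 further: growth inhibition of NCI-H187 cells, read out as cell viability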
Description: SANGER: Inhibition of human NCI-H187 cell growth in a cell viability assay.

[29] = test system: IGR-1; test: cells; type: functional, cell-based; details: Homo sapiens;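 further: growth inhibition of human IGR-1 cells, read out with a cell viability assay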
Description: SANGER: Inhibition of human IGR-1 cell growth in a cell viability assay.

[30] = test system: SNU-387; test: cells; type: functional, cell-based; details: Homo sapiens
Description: SANGER: Inhibition of human SNU-387 cell growth in a cell viability assay.

[31] = test system: HN; test: cells; type: functional, cell-based; details: Homo sapiens
Description: SANGER: Inhibition of human HN cell growth in a cell viability assay.

[32] = test system: SW1417; test: cells; type: functional, cell-based; details: Homo sapiens;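 further: growth inhibition of human SW1417 cells, read out with a cell viability assay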
Description: SANGER: Inhibition of human SW1417 cell growth in a cell viability assay.

[33] = test system: SU-DHL-1; test: SANGER: Inhibition of human SU-DHL-1 cell growth in a cell viability assay.; type: functional, cell-based
[34] = test system: DU-145; test: cells; type: functional, cell-based; details: Homo sapiens
Description: SANGER: Inhibition of human DU-145 cell growth in a cell viability assay.

[35] = test system: DOK; test: cells; type: functional, cell-based; details: Homo sapiens;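 further: cell viability assay read-out, values reflect inhibition of cell growth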
Description: SANGER: Inhibition of human DOK cell growth in a cell viability assay.

[36] = test system: J82; test: cells; type: functional, cell-based; details: Homo sapiens;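 further: growth inhibition of J82 cells, read out with a cell viability assay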
Description: SANGER: Inhibition of human J82 cell growth in a cell viability assay.

[37] = test system: MDA-MB-468; test: cells; type: functional, cell-based; details: Homo sapiens
Description: SANGER: Inhibition of human MDA-MB-468 cell growth in a cell viability assay.

[38] = test system: NCI-H2141; test: cells; type: functional, cell-based; details: Homo sapiens;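 further: growth inhibition of human NCI-H2141 cells, read out with a cell viability assay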
Description: SANGER: Inhibition of human NCI-H2141 cell growth in a cell viability assay.

[39] = test system: GMS-10; test: cells; type: functional, cell-based; details: Homo sapiens;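 further: growth inhibition of GMS-10 cells, read out as cell viability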
Description: SANGER: Inhibition of human GMS-10 cell growth in a cell viability assay.

[40] = test system: C-33-A; test: cells; type: functional, cell-based; details: Homo sapiens;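 further: cell viability assay measuring growth inhibition of C-33-A cells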
Description: SANGER: Inhibition of human C-33-A cell growth in a cell viability assay.

[41] = test system: C3A; test: cells; type: functional, cell-based; details: Homo sapiens;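 further: growth inhibition of C3A human cells, quantified with a cell viability readout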
Description: SANGER: Inhibition of human C3A cell growth in a cell viability assay.

[42] = test system: CAL-62; test: cells; type: functional, cell-based; details: Homo sapiens;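 further: growth inhibition of CAL-62 cells, read out with a cell viability assay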
Description: SANGER: Inhibition of human CAL-62 cell growth in a cell viability assay.

[43] = test system: RT-112; test: cells; type: functional, cell-based; details: Homo sapiens
Description: SANGER: Inhibition of human RT-112 cell growth in a cell viability assay.

[44] = test system: G-401; test: cells; type: functional, cell-based; details: Homo sapiens
Description: SANGER: Inhibition of human G-401 cell growth in a cell viability assay.

[45] = test system: CAL-54; test: cells; type: functional, cell-based; details: Homo sapiens;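 further: growth inhibition of CAL-54 cells, read out by a viability measurement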
Description: SANGER: Inhibition of human CAL-54 cell growth in a cell viability assay.

[46] = test system: NCI-H1734; test: cells; type: functional, cell-based; details: Homo sapiens;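 further: growth inhibition of human NCI-H1734 cells, read out with a cell viability assay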
Description: SANGER: Inhibition of human NCI-H1734 cell growth in a cell viability assay.

[47] = test system: HCC2157; test: cells; type: functional, cell-based; details: Homo sapiens;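 further: growth inhibition of the cancer cell line, read out as cell viability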
Description: SANGER: Inhibition of human HCC2157 cell growth in a cell viability assay.

[48] = test system: HT55; test: cells; type: functional, cell-based; details: Homo sapiens;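 further: cell viability readout measuring growth inhibition of human HT55 cells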
Description: SANGER: Inhibition of human HT55 cell growth in a cell viability assay.

[49] = test system: MEL-JUSO; test: cells; type: functional, cell-based; details: Homo sapiens;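 further: growth inhibition of human MEL-JUSO cells, read out with a cell viability assay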
Description: SANGER: Inhibition of human MEL-JUSO cell growth in a cell viability assay.

[50] = test system: HCC1419; test: cells; type: functional, cell-based; details: Homo sapiens;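 further: growth inhibition of human HCC1419 cells, read out as cell viability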
Description: SANGER: Inhibition of human HCC1419 cell growth in a cell viability assay.

[51] = test system: NCI-H1417; test: cells; type: functional, cell-based; details: Homo sapiens;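 further: human NCI-H1417 cells, growth inhibition determined with a cell viability readout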
Description: SANGER: Inhibition of human NCI-H1417 cell growth in a cell viability assay.

[52] = test system: NCI-H1522; test: cells; type: functional, cell-based; details: Homo sapiens;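 further: growth inhibition of NCI-H1522 cells, read out with a cell viability assay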
Description: SANGER: Inhibition of human NCI-H1522 cell growth in a cell viability assay.

[53] = test system: NCI-H1882; test: cells; type: functional, cell-based; details: Homo sapiens;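 further: growth inhibition of the cell line, determined with a viability assay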
Description: SANGER: Inhibition of human NCI-H1882 cell growth in a cell viability assay.

[54] = test system: NCI-H2030; test: cells; type: functional, cell-based; details: Homo sapiens;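 further: growth inhibition of human NCI-H2030 cells, read out by a cell viability assay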
Description: SANGER: Inhibition of human NCI-H2030 cell growth in a cell viability assay.

[55] = test system: NCI-H1755; test: cells; type: functional, cell-based; details: Homo sapiens;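 further: cell viability readout used to measure growth inhibition of NCI-H1755 cells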
Description: SANGER: Inhibition of human NCI-H1755 cell growth in a cell viability assay.

[56] = test system: SW1088; test: cells; type: functional, cell-based; details: Homo sapiens;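 further: growth inhibition of human SW1088 cells, read out by a cell viability assay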
Description: SANGER: Inhibition of human SW1088 cell growth in a cell viability assay.

[57] = test system: NCI-H596; test: cells; type: functional, cell-based; details: Homo sapiens;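 further: growth inhibition of NCI-H596 cells, read out with a cell viability assay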
Description: SANGER: Inhibition of human NCI-H596 cell growth in a cell viability assay.

[58] = test system: SNU-423; test: cells; type: functional, cell-based; details: Homo sapiens
Description: SANGER: Inhibition of human SNU-423 cell growth in a cell viability assay.

[59] = test system: CAKI-1; test: cells; type: functional, cell-based; details: Homo sapiens;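 further: growth inhibition of CAKI-1 cells, measured by a cell viability assay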
Description: SANGER: Inhibition of human CAKI-1 cell growth in a cell viability assay.

[60] = test system: A 172; test: cells; type: functional, cell-based; details: Homo sapiens
Description: SANGER: Inhibition of human A172 cell growth in a cell viability assay.

[61] = test system: MIA PaCa-2; test: cells; type: functional, cell-based; details: Homo sapiens
Description: SANGER: Inhibition of human MIA-PaCa-2 cell growth in a cell viability assay.

[62] = test system: RL95-2; test: cells; type: functional, cell-based; details: Homo sapiens
Description: SANGER: Inhibition of human RL95-2 cell growth in a cell viability assay.

## N#C/C(=C1/Nc2ccccc2S1)c1ccnc(NCCc2cccnc2)n1
[1]
  IC50: 4.86 µM
[2]
  IC50: > 8 µM
[3]
  IC50: > 8 µM
[4]
  IC50: > 8 µM
[5]
  IC50: > 8 µM
[6]
  IC50: > 8 µM
[7]
  IC50: > 8 µM
[8]
  IC50: > 8 µM
[9]
  IC50: 7.65 µM
[10]
  IC50: > 8 µM
[11]
  IC50: 5.97 µM
[12]
  IC50: > 8 µM
[13]
  IC50: > 8 µM
[14]
  IC50: 7.64 µM
[15]
  IC50: 6.52 µM
[16]
  IC50: > 8 µM
[17]
  IC50: > 8 µM
[18]
  IC50: > 8 µM
[19]
  IC50: > 8 µM
[20]
  IC50: > 8 µM
[21]
  IC50: > 8 µM
[22]
  IC50: > 8 µM
[23]
  IC50: > 8 µM
[24]
  IC50: > 8 µM
[25]
  IC50: 4.27 µM
[26]
  IC50: > 8 µM
[27]
  IC50: > 8 µM
[28]
  IC50: > 8 µM
[29]
  IC50: 4.68 µM
[30]
  IC50: 3.8 µM
[31]
  IC50: > 8 µM
[32]
  IC50: > 8 µM
[33]
  IC50: > 8 µM
[34]
  IC50: > 8 µM
[35]
  IC50: > 8 µM
[36]
  IC50: 4.34 µM
[37]
  IC50: > 8 µM
[38]
  IC50: > 8 µM
[39]
  IC50: > 8 µM
[40]
  IC50: 2.67 µM
[41]
  IC50: 2.81 µM
[42]
  IC50: 5.89 µM
[43]
  IC50: > 8 µM
[44]
  IC50: 2.82 µM
[45]
  IC50: > 8 µM
[46]
  IC50: > 8 µM
[47]
  IC50: > 8 µM
[48]
  IC50: > 8 µM
[49]
  IC50: 3.65 µM
[50]
  IC50: > 8 µM
[51]
  IC50: > 8 µM
[52]
  IC50: > 8 µM
[53]
  IC50: > 8 µM
[54]
  IC50: > 8 µM
[55]
  IC50: > 8 µM
[56]
  IC50: > 8 µM
[57]
  IC50: > 8 µM
[58]
  IC50: 2.3 µM
[59]
  IC50: 6.48 µM
[60]
  IC50: 2.16 µM
[61]
  IC50: 0.976 µM

## COc1cc(C)c(Sc2cnc(NC(=O)c3ccc(CNC(C)C(C)(C)C)cc3)s2)cc1C(=O)N1CCN(C(C)=O)CC1 (stereo not given)
[2]
  IC50: > 10.2 µM
[4]
  IC50: 8.3 µM
[10]
  IC50: > 10.2 µM
[14]
  IC50: > 10.2 µM
[17]
  IC50: > 10.2 µM
[18]
  IC50: > 10.2 µM
[22]
  IC50: 8.07 µM
[26]
  IC50: > 10.2 µM
[27]
  IC50: > 10.2 µM
[28]
  IC50: > 10.2 µM
[33]
  IC50: > 10.2 µM
[38]
  IC50: > 10.2 µM
[62]
  IC50: 4.51 µM
[47]
  IC50: > 10.2 µM
[51]
  IC50: > 10.2 µM
[52]
  IC50: > 10.2 µM
[53]
  IC50: > 10.2 µM

## Cc1n[nH]c2ccc(-c3cncc(OC[C@@H](N)Cc4c[nH]c5ccccc45)c3)cc12 [A-443654]
[2]
  IC50: 0.298 µM
[4]
  IC50: 0.104 µM
[10]
  IC50: 0.304 µM
[14]
  IC50: 0.0963 µM
[17]
  IC50: 0.22 µM
[18]
  IC50: > 1.02 µM
[22]
  IC50: 0.13 µM
[26]
  IC50: 0.489 µM
[27]
  IC50: 0.242 µM
[28]
  IC50: 0.464 µM
[33]
  IC50: 0.797 µM
[38]
  IC50: 0.54 µM
[62]
  IC50: 0.0228 µM
[47]
  IC50: 0.561 µM
[51]
  IC50: 0.584 µM
[52]
  IC50: 0.464 µM
[53]
  IC50: 0.428 µM
